Measurements taken from US7998936B2, “Use of timosaponin Bll in the preparation of a medicament or product for the prevention and treatment of stroke” (Institute of Radiation Medicine, Academy of Military …, priority 2004, dated 2011).

How the values were obtained:
[1] = test system: FeCl3-Induced Middle Cerebral Artery Thrombosis (MCAT) Rats; experiment: Neurological symptom score in middle cerebral artery thrombosis rats; format: in vivo, rat; conditions: 0.6 mg/kg by gavage 7 days, full score 4
Description: (§1) Tamura and Liu's methods were used with modifications to prepare the model. Rats were anesthetized by intraperitoneal injection of 10% chloral hydrate (0.35 g/kg); and fixed with right arm reclining. An arc incision of about 1.5 cm in length was made at the midpoint between the link of paropia and external auditory canal and temporalis was removed to expose the temporal bone. […] The surrounding-tissues were protected with a piece of plastic film. A small piece of quantitative filter paper, which had absorbed 10 μL of a 50% ferric chloride solution, was applied on this segment of middle cerebral artery. The filter paper was removed after 30 min, and local tissues were rinsed with normal saline solution, followed by suture layer by layer. Then the experimental rats were put back to rearing cage. The temperature was controlled at 24° C. For the sham-operation group, the operation procedures were the same as the model group except for the application of the ferric chloride solution.
The experimental animals were tested for behaviors 6 h and 24 h after operation according to the Sederson's method with modifications. Criteria: (1) The tail of the rat was lifted to observe the flexibility of the forelimb, with both forelimbs symmetrically stretching forward scored as 0, and occurrence of any or all of shoulder inflexion, elbow inflexion, shoulder intorsion in the contralateral fore-limb opposite to the operation side scored as 1. (2) The animal was placed on a plane, and its shoulders were pushed to the opposite direction to check resistance, Equivalency and strong resistance in both sides was scored as 0, and reduction in resistance in the contralateral side was scored as 1. (3) Both forelimbs of the rat were placed on wire gauze to observe the muscular tension. […] According to the criteria above, the full score is 4, and the higher the score is, the more serious the behavior disorder of the animal is.

[2] = test system: FeCl3-Induced Middle Cerebral Artery Thrombosis (MCAT) Rats; experiment: Cerebral infarct size (TTC staining) in FeCl3-induced middle cerebral artery thrombosis rats; format: in vivo, rat; conditions: 0.6 mg/kg by gavage 7 days, x ± s
Description: as §1
After behavior assessment, the animals were decapitated to remove the brains. The olfactory bulb, cerebellum and lower brain stem were removed, and the remaining part was cut into 5 coronal sections below 4° C. The sections were immediately placed into a TTC staining solution (containing 1.5 m 4% TTC, 0.1 ml 1M K2HPO4 and water (balance) per 5 ml staining solution), followed by incubation in dark at 37° C. for 30 min. Then, the sections were transferred into a solution of 10% formaldehyde and incubated in dark for 24 h. After staining, the non-ischemic areas were rose red, and the infracted areas were white. The white tissues were carefully collected and weighed. The extent of cerebral infarction was expressed as a percentage (%) of infracted tissue to the weight of total brain and also to the affected side of brain.

[3] = test system: acute blood stagnation model rats; experiment: Erythrocyte aggregation and deformability in acute blood stagnation model rats; format: in vivo, rat; conditions: 12 mg/kg
Procedure: MAO Teng-min's methods were modified to prepare the model. Rats were subcutaneously injected with 0.8 mg/kg adrenaline twice at 1 h and 5 h after administration on the fifth day, and were placed into ice-water at 4° C. for 5 min at 2 h after the first injection of adrenaline.
To 40 μl of heparinized blood, 1 ml of deforming solution was added and mixed thoroughly. A sample of 0.8 ml was tested in an erythrocyte aggregation/deformability tester, and erythrocyte deformability was expressed as maximal erythrocyte deformation index and area under curve (SSS). Another 0.8 ml of anticoagulated blood was tested in an erythrocyte aggregation/deformability tester, and erythrocyte aggregation was expressed as maximal erythrocyte aggregation index (MAXD) and area under curve ([…]).

[4] = test system: Middle Cerebral Artery Thrombosis (MCAT) Rats; experiment: Water content in brain tissues in middle cerebral artery thrombosis rats; format: in vivo, rat; conditions: 24 h after operation, 12 mg/kg
TGF-β = experiment: ELISA of TGF-β in brain tissue of cerebral ischemia-reperfusion rats; conditions: brain homogenate, 12 mg/kg by gavage 5 days
[5] = test system: acute blood stagnation model rats; experiment: Whole blood and plasma viscosities in acute blood stagnation model rats; format: in vivo, rat; conditions: 12 mg/kg by gavage 5 days
Description: MAO Teng-min's methods were modified to prepare the model.

TNF-α = experiment: ELISA of TNF-α in brain tissue of cerebral ischemia-reperfusion rats; conditions: brain homogenate, 12 mg/kg by gavage 5 days
IL-10 = experiment: ELISA of IL-10 in brain tissue of cerebral ischemia-reperfusion rats; conditions: brain homogenate, 12 mg/kg by gavage 5 days
IL-1β = experiment: ELISA of IL-1β in brain tissue of cerebral ischemia-reperfusion rats; conditions: brain homogenate, 12 mg/kg by gavage 5 days

| Compound | neurological symptomatic score 6 h ([1]; 6 h after operation) | neurological symptomatic score 24 h ([1]; 24 h after operation) | cerebral infarct size percentage to affected side [2] [%] | cerebral infarct size percentage to total brain [2] [%] | Erythrocyte aggregation SS ([3]; area under curve) | Erythrocyte deformability SSS ([3]; area under curve) | Erythrocyte aggregation MAXD ([3]; maximal erythrocyte aggregation index) | Erythrocyte deformability MAXDI ([3]; maximal erythrocyte deformation index) | Water content of affected hemisphere [4] [%] | Water content of unaffected hemisphere [4] [%] | TGF-β (TGF-β) [pg/mL] | Plasma viscosity (100 S^−1) [5] | Whole blood viscosity 1 S^−1 [5] | Whole blood viscosity 5 S^−1 [5] | Whole blood viscosity 30 S^−1 [5] | Whole blood viscosity 200 S^−1 [5] | TNFα (TNF-α) [pg/mL] | IL-10 (IL-10) [pg/mL] | IL-1β (IL-1β) [pg/mL] |
| --- | --- | --- | --- | --- | --- | --- | --- | --- | --- | --- | --- | --- | --- | --- | --- | --- | --- | --- | --- |
| Hydergine [reference compound] | 1.91 ± 0.83 | 1.55 ± 0.69 | 3.75 ± 1.38 | 1.98 ± 0.72 | – | – | – | – | – | – | – | – | – | – | – | – | – | – | – |
| COCCOC(=O)C1=C(C)NC(C)=C(C(=O)OC(C)C)C1c1cccc([N+](=O)[O-])c1 (stereo not shown) [Nimodipine, reference compound] | – | – | – | – | 160.38 ± 16.50 | 353.92 ± 15.83 | 0.80 ± 0.09 | 0.70 ± 0.03 | 80.37 ± 0.73 | 79.44 ± 0.41 | 12.01 ± 2.54 | 1.41 ± 0.14 | 30.45 ± 8.74 | 12.34 ± 2.58 | 6.47 ± 0.92 | 4.51 ± 0.55 | 7.92 ± 0.56 | 4.98 ± 3.54 | 9.01 ± 0.81 |
